From US20250145630A1, “POLYMORPHS OF A PYRIDINYLIMIDAZO[1,2-B]PYRIDAZINE” (Cardurion Pharmaceuticals, Inc., priority 2023, published 2025)

Key:
[1] = ambient temperature and humidity
CaMKII = CaMKII inhibitor, US publication no. 20220098207; cited from earlier work
[2] = Dynamic vapor sorption (DVS); type: physicochemical
Procedure: Approximately 10-20 mg of sample was placed into a mesh vapor sorption balance pan and loaded into a DVS Intrinsic or Advantage dynamic vapor sorption balance by Surface Measurement Systems. The sample was subjected to a ramping profile from 40-90% relative humidity (RH) at 10% increments, maintaining the sample at each step until a stable weight had been achieved (dm/dt 0.004%, minimum step length 30 minutes, maximum step length 200 or 500 minutes) at 25° C. After completion of the sorption cycle, the sample was dried using the same procedure to 0% RH and then a second sorption cycle back to 40% RH. Two cycles were performed. The weight change during the sorption/desorption cycles were plotted, allowing for the hygroscopic nature of the sample to be determined.

[3] = Competitive slurrying of free base Forms A, B and C; type: physicochemical
Procedure: Competitive slurries were carried out at 20° C. and 60° C. using the following procedure: 1.5 mL slurries of Formula (I) were prepared in t-BME, acetone, ethanol, and 2-Me THF at 60° C. in 2 mL screw cap vials. The slurries were syringe filtered (0.45 μm PTFE filter) after ca. 1 hour to obtain saturated Formula (I) solutions. Ca. 0.6 mL of saturated solution was added to ca. 10 mg of free base Forms A, B, and C to form slurries. The experiments were agitated at either ambient temperature (ca. 20° C.) and 60° C. for 48 h.
After 48 h the slurries were isolated by centrifugation (nylon, 0.22 μm) and analyzed by XRPD. Where mixtures were observed competitive slurrying was continued until mixtures were no longer observed (21 days).

[4] = Seven day stability of Formula (I) Form C; type: physicochemical
[5] = Storage stability of Formula (I) Form C (long-term and accelerated); type: physicochemical; conditions: for Chemical Purity Assay: anhydrous; for Crystallinity: to Form C
Procedure: Formula (I) Form C was evaluated for stability (Table 16 and Table 17). The Form C was stored in polyethylene double bags sealed with Nylon lock ties, and inside a capped polyethylene container at Wilmington PharmaTech Company. The storage conditions were long-term condition 25° C./60% RH, or accelerated condition 40° C./75% RH. The samples were analyzed for appearance, assay, related substances, chiral purity, water content and crystallinity.

[6] = Storage stability of Formula (I) L-tartaric acid Form 2 co-crystal (long-term and accelerated); type: physicochemical; conditions: for Chemical Purity Assay: ASFB; for Crystallinity: to Form 2
Procedure: Formula (I) L-tartaric acid Form 2 co-crystal was evaluated for stability (Table 18 and Table 19). The co-crystal was stored in polyethylene double bags sealed with Nylon lock ties with two (2) 0.5 g silica gel desiccant packets in between, and inside a capped polyethylene container containing four (4) 33 g Silica Gel desiccant packs. The storage conditions were long-term condition 25° C./60% RH or accelerated condition 40° C./75% RH. The samples were analyzed for appearance, assay, related substances, chiral purity, water content and crystallinity.

[7] = as above; type: physicochemical; conditions: 25° C./60% RH, 0 months; to Form 2

COc1ccnc(-c2cnc3ccc(-c4ccc(F)c(O[C@@H](C)Cn5cnnn5)c4)nn23)c1C#N.O=C(O)C(O)C(O)C(=O)O
form conversion on standing [1]: converted to L-tartaric acid co-crystal Form 2

COc1ccnc(-c2cnc3ccc(-c4ccc(F)c(O[C@@H](C)Cn5cnnn5)c4)nn23)c1C#N [Example 321, (S)-2-(6-(3-((1-(1H-tetrazol-1-yl)propan-2-yl)oxy)-4-fluorophenyl)imidazo[1,2-b]pyridazin-3-yl)-4-methoxynicotinonitrile]
IC50 (CaMKII): < 10 nM

COc1ccnc(-c2cnc3ccc(-c4ccc(F)c(O[C@@H](C)Cn5cnnn5)c4)nn23)c1C#N [Formula (I) Form C, (S)-2-(6-(3-((1-(1H-tetrazol-1-yl)propan-2-yl)oxy)-4-fluorophenyl)imidazo[1,2-b]pyridazin-3-yl)-4-methoxynicotinonitrile]
hygroscopicity by DVS ([2]; 25° C.): slightly hygroscopic | Post-DVS XRPD analysis ([2]; after DVS): Form C was retained | uptake (DVS) ([2]; at 80% RH): 0.3% | Time until Form C was only detected polymorph ([3]; 60° C., 2-Me THF): 2 days | Time until Form C was only detected polymorph ([3]; 60° C., Ethanol): 2 days | Time until Form C was only detected polymorph ([3]; 60° C., acetone): 2 days | Time until Form C was only detected polymorph ([3]; 60° C., t-BME): 15 days | relative stability of free base polymorphs ([3]; all solvents tested, 20° C. and 60° C.): most stable polymorph | Time until Form C was only detected polymorph ([3]; ambient (ca. 20° C.), 2-Me THF): 9 days | Time until Form C was only detected polymorph ([3]; ambient (ca. 20° C.), Ethanol): 8 days | Time until Form C was only detected polymorph ([3]; ambient (ca. 20° C.), acetone): 2 days | Time until Form C was only detected polymorph ([3]; ambient (ca. 20° C.), t-BME): 21 days | HPLC Purity ([4]; 7 day, 25° C./60% RH): 99.0 % area | XRPD Analysis ([4]; 7 day, 25° C./60% RH): Form C | HPLC Purity ([4]; 7 day, 40° C./75% RH): 99.0 % area | XRPD Analysis ([4]; 7 day, 40° C./75% RH): Form C | HPLC Purity ([4]; 7 day, 80° C.): 98.9 % area | XRPD Analysis ([4]; 7 day, 80° C.): Form C | HPLC analysis, change in purity after 7 day stability ([4]; 7 day, all conditions): no loss in purity | XRPD analysis after 7 day stability ([4]; 7 day, all conditions): retained | Input Purity ([4]; before storage): 98.8 % area | Chiral Purity ([5]; 25° C./60% RH, 0 months): >99.9 area % | Description ([5]; 25° C./60% RH, 0 months): Off-white | Related Substances: Impurity #1 ([5]; 25° C./60% RH, 0 months): 0.05% | Related Substances: Impurity #2 ([5]; 25° C./60% RH, 0 months): 0.18% | Total Impurities ([5]; 25° C./60% RH, 0 months): 0.23% | Water ([5]; 25° C./60% RH, 0 months): 0.29% | Chemical Purity Assay ([5]; 25° C./60% RH, 0 months): 100.1 wt % | Crystallinity ([5]; 25° C./60% RH, 0 months): Conforms | Chiral Purity ([5]; 25° C./60% RH, 12 months): >99.9 area % | Description ([5]; 25° C./60% RH, 12 months): Off-white | Related Substances: Impurity #1 ([5]; 25° C./60% RH, 12 months): 0.05% | Related Substances: Impurity #2 ([5]; 25° C./60% RH, 12 months): 0.18% | Total Impurities ([5]; 25° C./60% RH, 12 months): 0.23% | Water ([5]; 25° C./60% RH, 12 months): 0.32% | Chemical Purity Assay ([5]; 25° C./60% RH, 12 months): 99.4 wt % | Crystallinity ([5]; 25° C./60% RH, 12 months): Conforms | Chiral Purity ([5]; 25° C./60% RH, 24 months): >99.9 area % | Description ([5]; 25° C./60% RH, 24 months): Off-white | Related Substances: Impurity #1 ([5]; 25° C./60% RH, 24 months): 0.05% | Related Substances: Impurity #2 ([5]; 25° C./60% RH, 24 months): 0.18% | Total Impurities ([5]; 25° C./60% RH, 24 months): 0.23% | Water ([5]; 25° C./60% RH, 24 months): 0.35% | Chemical Purity Assay ([5]; 25° C./60% RH, 24 months): 99.4 wt % | Crystallinity ([5]; 25° C./60% RH, 24 months): Conforms | B. Unidentified Impurities (RRT: %), first listed ([5]; 40° C./75% RH, 0 months): 0.07% | B. Unidentified Impurities (RRT: %), second listed ([5]; 40° C./75% RH, 0 months): 0.05% | Chiral Purity ([5]; 40° C./75% RH, 0 months): >99.9 area % | Description ([5]; 40° C./75% RH, 0 months): Off-white | Related Substances: Impurity #1 ([5]; 40° C./75% RH, 0 months): 0.09% | Related Substances: Impurity #2 ([5]; 40° C./75% RH, 0 months): 0.19% | Related Substances: Impurity #3 ([5]; 40° C./75% RH, 0 months): <0.05% | Total Impurities ([5]; 40° C./75% RH, 0 months): 0.40% | Water ([5]; 40° C./75% RH, 0 months): 0.36% | Chemical Purity Assay ([5]; 40° C./75% RH, 0 months): 99.6 wt % | Crystallinity ([5]; 40° C./75% RH, 0 months): Conforms | B. Unidentified Impurities (RRT: %), first listed ([5]; 40° C./75% RH, 6 months): 0.06% | B. Unidentified Impurities (RRT: %), second listed ([5]; 40° C./75% RH, 6 months): 0.06% | Chiral Purity ([5]; 40° C./75% RH, 6 months): >99.9 area % | Description ([5]; 40° C./75% RH, 6 months): Off-white | Related Substances: Impurity #1 ([5]; 40° C./75% RH, 6 months): 0.08% | Related Substances: Impurity #2 ([5]; 40° C./75% RH, 6 months): 0.19% | Related Substances: Impurity #3 ([5]; 40° C./75% RH, 6 months): 0.05% | Total Impurities ([5]; 40° C./75% RH, 6 months): 0.44% | Water ([5]; 40° C./75% RH, 6 months): 0.15% | Chemical Purity Assay ([5]; 40° C./75% RH, 6 months): 99.3 wt % | Crystallinity ([5]; 40° C./75% RH, 6 months): Conforms | B. Unidentified Impurities (RRT: %), first listed ([5]; 40° C./75% RH, 12 months): 0.06% | Chiral Purity ([5]; 40° C./75% RH, 12 months): >99.9 area % | Description ([5]; 40° C./75% RH, 12 months): Off-white | Related Substances: Impurity #1 ([5]; 40° C./75% RH, 12 months): 0.08% | Related Substances: Impurity #2 ([5]; 40° C./75% RH, 12 months): 0.19% | Related Substances: Impurity #3 ([5]; 40° C./75% RH, 12 months): <0.05% | Total Impurities ([5]; 40° C./75% RH, 12 months): 0.33% | Water ([5]; 40° C./75% RH, 12 months): 0.49% | Chemical Purity Assay ([5]; 40° C./75% RH, 12 months): 99.6 wt % | Crystallinity ([5]; 40° C./75% RH, 12 months): Conforms

COc1ccnc(-c2cnc3ccc(-c4ccc(F)c(O[C@@H](C)Cn5cnnn5)c4)nn23)c1C#N.COc1ccnc(-c2cnc3ccc(-c4ccc(F)c(O[C@@H](C)Cn5cnnn5)c4)nn23)c1C#N.O.O=C(O)C(O)C(O)C(=O)O.O=C(O)C(O)C(O)C(=O)O [Formula (I) L-Tartaric Acid Form 2]
Chiral Purity ([6]; 25° C./60% RH, 0 months): >99.9 area % | Description ([6]; 25° C./60% RH, 0 months): Off-white | Related Substances: Impurity #1 ([6]; 25° C./60% RH, 0 months): 0.25% | Total Impurities ([6]; 25° C./60% RH, 0 months): 0.25% | Water ([6]; 25° C./60% RH, 0 months): 1.59% | Chemical Purity Assay ([6]; 25° C./60% RH, 0 months): 99.3 wt % | Description ([6]; 25° C./60% RH, 3 months): Off-white | Related Substances: Impurity #1 ([6]; 25° C./60% RH, 3 months): 0.25% | Total Impurities ([6]; 25° C./60% RH, 3 months): 0.25% | Water ([6]; 25° C./60% RH, 3 months): 1.58% | Chemical Purity Assay ([6]; 25° C./60% RH, 3 months): 99.6 wt % | Crystallinity ([6]; 25° C./60% RH, 3 months): Conforms | Chiral Purity ([6]; 25° C./60% RH, 6 months): >99.9 area % | Description ([6]; 25° C./60% RH, 6 months): Off-white | Related Substances: Impurity #1 ([6]; 25° C./60% RH, 6 months): 0.26% | Total Impurities ([6]; 25° C./60% RH, 6 months): 0.26% | Water ([6]; 25° C./60% RH, 6 months): 1.55% | Chemical Purity Assay ([6]; 25° C./60% RH, 6 months): 99.3 wt % | Crystallinity ([6]; 25° C./60% RH, 6 months): Conforms | Chiral Purity ([6]; 40° C./75% RH, 0 months): >99.9 area % | Description ([6]; 40° C./75% RH, 0 months): Off-white | Related Substances: Impurity #1 ([6]; 40° C./75% RH, 0 months): 0.25% | Total Impurities ([6]; 40° C./75% RH, 0 months): 0.25% | Water ([6]; 40° C./75% RH, 0 months): 1.59% | Chemical Purity Assay ([6]; 40° C./75% RH, 0 months): 99.3 wt % | Crystallinity ([6]; 40° C./75% RH, 0 months): Conforms | Description ([6]; 40° C./75% RH, 3 months): Off-white | Related Substances: Impurity #1 ([6]; 40° C./75% RH, 3 months): 0.25% | Total Impurities ([6]; 40° C./75% RH, 3 months): 0.25% | Water ([6]; 40° C./75% RH, 3 months): 1.56% | Chemical Purity Assay ([6]; 40° C./75% RH, 3 months): 99.3 wt % | Crystallinity ([6]; 40° C./75% RH, 3 months): Conforms | Chiral Purity ([6]; 40° C./75% RH, 6 months): >99.9 area % | Description ([6]; 40° C./75% RH, 6 months): Off-white | Related Substances: Impurity #1 ([6]; 40° C./75% RH, 6 months): 0.25% | Total Impurities ([6]; 40° C./75% RH, 6 months): 0.25% | Water ([6]; 40° C./75% RH, 6 months): 1.60% | Chemical Purity Assay ([6]; 40° C./75% RH, 6 months): 100.0 wt % | Crystallinity ([6]; 40° C./75% RH, 6 months): Conforms | Crystallinity [7]: Conforms
